According to patent publication US9669034B2, “4-aryl-N-phenyl-1,3,5-triazin-2-amines containing a sulfoximine group” (BAYER INTELLECTUAL PROPERTY GMBH, priority 2011, dated 2017):
Converted amounts (≈) assume the structure as drawn. Read-outs that look alike come from different tables or passages of the source.

Key:
CDK2/CycE = CDK2/CycE (Homo sapiens (Human), UniProt P24941); experiment: CDK2/CycE kinase assay (TR-FRET); type: biochemical; conditions: Method 2
Procedure, shortened: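 TR-FRET measurement of inhibition of phosphorylation of a biotinylated peptide substrate. Enzyme complex consisted of human CDK2 and CycE, each as a GST fusion made in Sf9 cells and purified over glutathione-Sepharose.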

[1] = tested on: HeLa-MaTu-ADR, multidrug-resistant human cervical carcinoma cells; experiment: Proliferation assay (crystal violet), HeLa-MaTu-ADR; type: cell-based; conditions: Homo sapiens, HeLa, Method 3, read-out: Inhibition of HeLa/MaTu/ADR cell proliferation, IC50
Procedure, shortened: (§1)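 Cells were seeded at 3000/well (NCI-H460, HeLa), 5000/well (HeLa-MaTu-ADR) or 1500/well (Caco-2) in medium with 10% FCS. After 24 h, compounds ([…], 0.5% DMSO) were added for 4 days. Crystal violet absorbance at 595 nm was normalized to a zero-point plate and untreated cells; IC50 came from a 4-parameter fit.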

[2] = tested on: NCI-H460, human non-small cell lung carcinoma cells; experiment: Proliferation assay (crystal violet), NCI-H460; type: cell-based; conditions: Homo sapiens, NCI-H460, NCI-H460 cells, Method 3; read-out: Inhibition of NCI-H460 cell proliferation, IC50
Procedure, shortened: as §1

[3] = tested on: DU145, hormone-independent human prostate carcinoma cells; experiment: Proliferation assay (crystal violet), DU145; type: cell-based; conditions: Homo sapiens, DU-145, DU145 cells, Method 3; read-out: Inhibition of DU145 cell proliferation, IC50
Procedure, shortened: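 Proliferation of DU145 cells was measured with crystal violet. Cells were fixed with 20 μL 11% glutaric aldehyde for 15 minutes, washed, dried, stained with 100 μL 0.1% crystal violet (pH 3.0), washed again, and the dye was dissolved in 10% acetic acid. Absorbance at 595 nm was normalized to the zero-point plate and untreated cells, and IC50 came from a 4 parameter fit.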

[4] = tested on: B16F10 mouse melanoma cells; experiment: Proliferation assay (crystal violet), B16F10; type: cell-based; conditions: Mus musculus, B16-F10, B16F10 cells, Method 3; read-out: Inhibition of B16F10 cell proliferation, IC50
Procedure, shortened: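 Proliferation was read out by crystal violet staining. Cells were fixed for 15 minutes at room temperature with 20 μL of 11% glutaric aldehyde, washed three times with water, dried, and stained with 100 μL of 0.1% crystal violet (pH 3.0). After washing and drying, the dye was dissolved in 100 μL of 10% acetic acid and absorbance measured at 595 nm. Values were normalized to the zero-point plate (0%) and untreated cells (100%), and IC50 was obtained by a 4 parameter fit.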

[5] = tested on: Caco-2 human colorectal carcinoma; experiment: Proliferation assay (crystal violet), Caco-2; type: cell-based; conditions: Homo sapiens, Caco-2, Caco-2 cells, Method 3; read-out: Inhibition of Caco-2 cell proliferation, IC50
Procedure, shortened: as §1

[6] = tested on: HeLa human cervical tumour cells; experiment: Proliferation assay (crystal violet), HeLa; type: cell-based; conditions: Method 3, read-out: Inhibition of HeLa cell proliferation, IC50
Procedure, shortened: as §1

[7] = Equilibrium shake flask solubility assay; type: physicochemical; conditions: pH 6.5, equilibrium shake flask method; for solubility thermodynamic at 24 h: phosphate buffer, pH 6.5, aqueous buffer, thermodynamic from solid, water
Description: 4. Equilibrium Shake Flask Solubility Assay:
The thermodynamic solubility of compounds in water was determined by an equilibrium shake flask method (see for example: E. H. Kerns, L. Di: Drug-like Properties: Concepts, Structure Design and Methods, 276-286, Burlington, Mass., Academic Press, 2008). A saturated solution of the drug was prepared and the solution was mixed for 24 h to ensure that equilibrium was reached. The solution was centrifuged to remove the insoluble fraction and the concentration of the compound in solution was determined using a standard calibration curve.
To prepare the sample, 2 mg solid compound was weighed in a 4 mL glass vial. 1 mL phosphate buffer pH 6.5 was added. The suspension was stirred for 24 hrs at room temperature. The solution was centrifuged afterwards. To prepare the sample for the standard calibration, 2 mg solid sample was dissolved in 30 mL acetonitrile. After sonification the solution was diluted with water to 50 mL. Sample and standards were quantified by HPLC with UV-detection. For each sample two injection volumes (5 and 50 μl) in triplicates were made. Three injection volumes (5 μl, 10 μl and 20 μl) were made for the standard.
Chromatographic Conditions:
The areas of sample- and standard injections as well as the calculation of the solubility value (in mg/l) were determined by using HPLC software (Waters Empower 2 FR).

CDK9/CycT1 = CDK9/CycT1 (Homo sapiens (Human), UniProt P50750); experiment: CDK9/CycT1 kinase assay (TR-FRET); type: biochemical; conditions: Method 1
Procedure, shortened: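 TR-FRET read-out of kinase inhibition, with a biotin-Ttds-tagged peptide as substrate. Enzyme: human CDK9 and CycT1, full-length with His tags, produced in insect cells and purified on Ni-NTA.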

[8] = target: human carbonic anhydrase-2 (Homo sapiens (Human), UniProt P00918); experiment: Carbonic anhydrase assay, carbonic anhydrase-2; type: biochemical; conditions: read-out: Inhibition of Carbonic anhydrase-2: IC50
Excerpt: (§2) 5. Carbonic Anhydrase Assay
(§3) The principle of the assay is based on the hydrolysis of 4-nitrophenyl acetate by carbonic anhydrases (Pocker & Stone, Biochemistry, 1967, 6, 668), with subsequent photometric determination of the dye product 4-nitrophenolate at 400 nm by means of a 96-channel spectral photometer.
(§4) 2 microL of the test compounds, dissolved in DMSO (100-fold final concentration), in a concentration range of 0.03-10 micromol/L (final), was pipetted as quadruplicates into the wells of a 96-hole microtiter plate. Wells that contained the solvent without test compounds were used as reference values (1. Wells without carbonic anhydrase for correction of the non-enzymatic hydrolysis of the substrate, and 2. Wells with carbonic anhydrase for determining the activity of the non-inhibited enzyme).
(§5) 188 microL of assay buffer (10 millimol/L of Tris/HCl, pH 7.4, 80 millimol/L of NaCl), with or without 3 units/well of carbonic anhydrase-1 [=human carbonic anhydrase-1 (Sigma, #C4396)] in order to determine carbonic anhydrase-1 inhibition or 3 units/well of carbonic anhydrase-2 [=human carbonic anhydrase-2 (Sigma, #C6165)] for measuring carbonic anhydrase-2 inhibition, was pipetted into the wells of the microtiter plate. […] IC50 values were determined by means of a 4 parameter fit.

[9] = target: human carbonic anhydrase-1 (Homo sapiens (Human), UniProt P00915); experiment: Carbonic anhydrase assay, carbonic anhydrase-1; type: biochemical; conditions: read-out: Inhibition of Carbonic anhydrase-1: IC50
Excerpt: as §2, §3, §4, §5

Sequence of CDK9/CycT1 (P50750 whole entry): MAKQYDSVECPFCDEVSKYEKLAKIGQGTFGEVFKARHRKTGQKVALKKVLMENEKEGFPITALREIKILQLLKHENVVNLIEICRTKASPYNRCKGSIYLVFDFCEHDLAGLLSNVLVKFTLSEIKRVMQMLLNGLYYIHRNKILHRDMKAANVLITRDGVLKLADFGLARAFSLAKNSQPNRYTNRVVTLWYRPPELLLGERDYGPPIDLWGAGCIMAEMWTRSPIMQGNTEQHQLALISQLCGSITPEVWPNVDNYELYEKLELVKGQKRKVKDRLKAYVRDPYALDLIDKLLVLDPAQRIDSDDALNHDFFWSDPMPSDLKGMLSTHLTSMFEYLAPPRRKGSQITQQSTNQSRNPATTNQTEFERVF
Sequence of CDK9/CycT1 (O60563 whole entry partner): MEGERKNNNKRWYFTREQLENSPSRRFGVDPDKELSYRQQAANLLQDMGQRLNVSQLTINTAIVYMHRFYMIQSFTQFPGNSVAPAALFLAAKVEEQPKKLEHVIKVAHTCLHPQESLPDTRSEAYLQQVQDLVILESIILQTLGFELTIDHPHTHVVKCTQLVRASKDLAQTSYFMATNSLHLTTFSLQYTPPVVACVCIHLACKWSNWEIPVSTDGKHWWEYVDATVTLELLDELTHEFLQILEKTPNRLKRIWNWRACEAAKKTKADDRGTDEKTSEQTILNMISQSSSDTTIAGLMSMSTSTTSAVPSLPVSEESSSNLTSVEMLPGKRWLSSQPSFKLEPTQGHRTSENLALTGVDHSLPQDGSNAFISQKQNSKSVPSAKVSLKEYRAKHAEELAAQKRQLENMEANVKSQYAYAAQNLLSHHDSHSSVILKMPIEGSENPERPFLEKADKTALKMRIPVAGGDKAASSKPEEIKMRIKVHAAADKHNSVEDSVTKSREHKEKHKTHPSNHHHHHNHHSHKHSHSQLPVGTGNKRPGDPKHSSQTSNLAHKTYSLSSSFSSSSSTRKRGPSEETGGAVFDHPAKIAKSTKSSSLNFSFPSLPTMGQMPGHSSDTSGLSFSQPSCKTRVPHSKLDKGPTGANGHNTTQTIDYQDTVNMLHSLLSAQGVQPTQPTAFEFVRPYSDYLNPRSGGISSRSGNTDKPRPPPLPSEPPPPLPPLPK
Sequence of human carbonic anhydrase-1 (P00915 whole entry): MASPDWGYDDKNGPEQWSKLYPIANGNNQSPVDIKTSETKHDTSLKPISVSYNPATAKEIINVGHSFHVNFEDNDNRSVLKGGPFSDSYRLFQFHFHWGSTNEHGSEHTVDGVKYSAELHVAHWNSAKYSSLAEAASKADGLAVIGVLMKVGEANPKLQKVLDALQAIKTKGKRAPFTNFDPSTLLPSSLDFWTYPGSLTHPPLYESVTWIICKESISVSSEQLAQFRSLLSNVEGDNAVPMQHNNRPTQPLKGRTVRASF

Row | SMILES | IC50 (CDK2/CycE) [µM] | IC50 [1] [µM] | IC50 [2] [µM] | IC50 [3] [µM] | IC50 [4] [µM] | IC50 [5] [µM] | IC50 ([6]; Homo sapiens, HeLa) [µM] | solubility thermodynamic at 24 h [7] [µg/mL] | IC50 (CDK9/CycT1) [µM] | IC50 [6] [µM] | Thermodynamic solubility in water at pH 6.5 [7] [mg/l] | IC50 [8] [µM] | IC50 [9] [µM]
1 | CNC(=O)N=S(C)(=O)Cc1cccc(Nc2ncnc(-c3ccc(F)cc3OC)n2)c1 (single isomer, unassigned; (+)) [Example 17, (+)-1-[(3-{[4-(4-Fluoro-2-methoxyphenyl)-1,3,5-triazin-2-yl]amino}benzyl)(methyl)oxido-λ^6-sulfanylidene]-3-methylurea] | 1.2 | 0.6 | 0.54 | 0.58 | 0.41 | 0.8 |  |  | 0.014 | 0.58 | 429 |  | 
2 | CNC(=O)N=S(C)(=O)Cc1cccc(Nc2ncnc(-c3ccc(F)cc3OC)n2)c1 (single isomer, unassigned; (-)) [Example 16, (−)-1-[(3-{[4-(4-Fluoro-2-methoxyphenyl)-1,3,5-triazin-2-yl]amino}benzyl)(methyl)oxido-λ^6-sulfanylidene]-3-methylurea] | 1.1 |  |  |  |  |  | 0.95 | 323 (≈ 727 µM) | 0.019 |  |  |  | 
3 | CS(=N)(=O)Cc1cccc(Nc2ncnc(-c3cccc4c3OCCO4)n2)c1 (single isomer, unassigned) [Example 40, 4-(2,3-Dihydro-1,4-benzodioxin-5-yl)-N-{3-[(S-methylsulfonimidoyl)methyl]phenyl}-1,3,5-triazin-2-amine] | 1.8 |  |  |  |  |  |  |  | 0.025 | 1.1 | 865 |  | 
4 | COc1cc(F)c(F)cc1-c1ncnc(Nc2cccc(CS(C)(=N)=O)c2)n1 (racemic) [Example 10, (rac)-4-(4,5-Difluoro-2-methoxyphenyl)-N-{3-[(S-methylsulfonimidoyl)methyl]phenyl}-1,3,5-triazin-2-amine] | 1.3 |  |  |  |  |  | 1.1 | 130 (≈ 321 µM) | 0.028 |  |  |  | 
5 | COc1cc(F)ccc1-c1ncnc(Nc2cccc(CS(C)(=N)=O)c2)n1 (single isomer, unassigned; (-)) [Example 3, (−)-4-(4-Fluoro-2-methoxyphenyl)-N-{3-[(S-methylsulfonimidoyl)methyl]phenyl}-1,3,5-triazin-2-amine] |  |  |  |  |  |  |  | 601 (≈ 1550 µM) |  |  |  | > 10 | > 10
6 | COc1cc(F)ccc1-c1ncnc(Nc2cccc(CS(C)(=O)=NC#N)c2)n1 (single isomer, unassigned) [Example 50, [(3-{[4-(4-fluoro-2-methoxyphenyl)-1,3,5-triazin-2-yl]amino}benzyl)(methyl)oxido-λ^6-sulfanylidene]cyanamide] | 0.43 | 0.19 | 0.31 | 0.14 | 0.25 | 0.35 | 0.26 |  | 0.007 |  | 126 |  | 

Results, then the molecule that gave them:

Row | IC50 (CDK2/CycE) [µM] | IC50 [1] [µM] | IC50 [2] [µM] | IC50 [3] [µM] | IC50 [4] [µM] | IC50 [5] [µM] | IC50 ([6]; Homo sapiens, HeLa) [µM] | solubility thermodynamic at 24 h [7] [µg/mL] | IC50 (CDK9/CycT1) [µM] | IC50 [6] [µM] | Thermodynamic solubility in water at pH 6.5 [7] [mg/l] | IC50 [8] [µM] | IC50 [9] [µM] | SMILES
7 | 1.6 | 0.63 | 0.56 | 0.48 | 0.52 | 0.3 | 0.47 | 256 (≈ 622 µM) | 0.015 |  |  |  |  | C#CCOc1cc(F)ccc1-c1ncnc(Nc2cccc(CS(C)(=N)=O)c2)n1 (racemic) [Example 77, (rac)-4-[4-Fluoro-2-(prop-2-yn-1-yloxy)phenyl]-N-{3-[(S-methylsulfonimidoyl)methyl]phenyl}-1,3,5-triazin-2-amine]
8 | 0.82 | 0.28 | 0.26 | 0.2 | 0.15 | 0.3 | 0.24 | 1220 (≈ 2870 µM) | 0.008 |  |  |  |  | CC#CCOc1cc(F)ccc1-c1ncnc(Nc2cccc(CS(C)(=N)=O)c2)n1 (racemic) [Example 73, (rac)-4-[2-(But-2-yn-1-yloxy)-4-fluorophenyl]-N-{3-[(S-methylsulfonimidoyl)methyl]phenyl}-1,3,5-triazin-2-amine]
9 | 2.3 |  |  |  |  |  | 1.1 | 104 (≈ 250 µM) | 0.029 |  |  |  |  | CCCOc1cc(F)ccc1-c1ncnc(Nc2cccc(CS(C)(=N)=O)c2)n1 (racemic) [Example 91, (rac)-4-(4-Fluoro-2-propoxyphenyl)-N-{3-[(S-methylsulfonimidoyl)methyl]phenyl}-1,3,5-triazin-2-amine]
10 | 1.3 | 0.7 | 0.89 | 0.73 | 0.81 | 0.78 | 0.38 | 884 (≈ 2200 µM) | 0.011 |  |  |  |  | CCOc1cc(F)ccc1-c1ncnc(Nc2cccc(CS(C)(=N)=O)c2)n1 (racemic) [Example 88, (rac)-4-(2-Ethoxy-4-fluorophenyl)-N-{3-[(S-methylsulfonimidoyl)methyl]phenyl}-1,3,5-triazin-2-amine]
11 |  |  |  |  |  |  |  |  |  |  |  | > 10 | > 10 | COc1cc(F)ccc1-c1ncnc(Nc2cccc(CS(C)(=N)=O)c2)n1 (single isomer, unassigned; (+)) [Example 4, (+)-4-(4-Fluoro-2-methoxyphenyl)-N-{3-[(S-methylsulfonimidoyl)methyl]phenyl}-1,3,5-triazin-2-amine]
